This experiment has as its target T1, RET G691S (Homo sapiens, UniProt P07949, G691S).
T1 construct: purchased Thermo Fisher Scientific (Life Technologies) SelectScreen
Briefly: SelectScreen LanthaScreen. It is filed as binding. Conditions: read-out: % displacement. In outline:
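SelectScreen broad panel; activity (Z'LYTE, Adapta) plus binding formats. ATP: Km app for CSF1R Z'LYTE; 10 for CAMK1 Adapta. Readout = % per kinase.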

The record followed here is article PMC6934184, “Selective DNA-PKcs inhibition extends the therapeutic index of localized radiotherapy and chemotherapy” (The Journal of Clinical Investigation, 2019).

T1 sequence (P07949 29-1114 G691S): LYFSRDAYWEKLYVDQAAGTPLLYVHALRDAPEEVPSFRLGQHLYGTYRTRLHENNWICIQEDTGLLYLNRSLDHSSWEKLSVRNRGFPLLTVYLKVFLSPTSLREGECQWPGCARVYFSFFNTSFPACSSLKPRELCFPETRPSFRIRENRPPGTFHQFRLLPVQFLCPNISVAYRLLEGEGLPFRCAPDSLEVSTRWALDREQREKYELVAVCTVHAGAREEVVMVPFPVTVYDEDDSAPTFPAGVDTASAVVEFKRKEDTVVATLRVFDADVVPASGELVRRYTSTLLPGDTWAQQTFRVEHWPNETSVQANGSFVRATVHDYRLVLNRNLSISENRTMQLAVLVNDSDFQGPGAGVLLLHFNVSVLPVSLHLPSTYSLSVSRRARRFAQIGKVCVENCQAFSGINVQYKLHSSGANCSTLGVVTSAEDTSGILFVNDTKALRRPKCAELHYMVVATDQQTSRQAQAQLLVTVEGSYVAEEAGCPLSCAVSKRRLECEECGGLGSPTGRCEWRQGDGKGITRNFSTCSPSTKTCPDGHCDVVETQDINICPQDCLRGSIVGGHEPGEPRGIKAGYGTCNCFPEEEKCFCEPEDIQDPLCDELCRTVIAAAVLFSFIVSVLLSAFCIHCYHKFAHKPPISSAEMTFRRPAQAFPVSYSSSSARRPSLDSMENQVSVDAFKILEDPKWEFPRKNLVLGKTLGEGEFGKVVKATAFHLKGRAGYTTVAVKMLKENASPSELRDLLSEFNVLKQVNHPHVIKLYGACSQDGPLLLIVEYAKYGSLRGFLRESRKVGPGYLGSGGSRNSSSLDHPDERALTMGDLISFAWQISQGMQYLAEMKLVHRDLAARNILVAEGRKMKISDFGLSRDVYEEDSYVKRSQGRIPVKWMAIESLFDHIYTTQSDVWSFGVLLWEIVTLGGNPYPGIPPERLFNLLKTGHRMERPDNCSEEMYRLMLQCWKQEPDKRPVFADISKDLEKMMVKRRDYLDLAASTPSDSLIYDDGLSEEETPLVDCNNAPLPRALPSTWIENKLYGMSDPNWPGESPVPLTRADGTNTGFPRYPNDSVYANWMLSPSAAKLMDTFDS

For the compound `CN(C(=O)CN1CCOCC1)c1ccc2sc3c(-c4cccc5c(=O)cc(N6CC7CCC(C6)O7)oc45)cccc3c2c1` [NU5455], the inhibition at 1 µM is -1.8%.
